The record followed here is patent US9255090B2, “Heterocyclyl derivatives and their use as prostaglandin D2 receptor modulators” (Actelion Pharmaceuticals Ltd., priority 2012, dated 2016).

In the experiment the target is hCRTH2 receptor (Homo sapiens (Human), UniProt Q9Y5Y4). As to the kind of experiment: hCRTH2 receptor membranes radioligand (3H-PGD2) displacement assay. The class given is binding. The settings on record: 3H-PGD2 radioligand displacement, HEK293-hCRTH2 membranes. The protocol: Biological Assays: Preparation of hCRTH2 Receptor Membranes and Radioligand Displacement Assay:
First, recombinant HEK293-hCRTH2 cells were detached from culture plates into 5 ml buffer A/plate (Buffer A: 5 mM Tris, 1 mM MgCl2-6H2O pH=7.4) using a rubber policeman. Cells were then transferred into centrifugation tubes and centrifuged for 5 min at 400 g. The cell pellet was resuspended in the same buffer and tubes were frozen at −80° C. Cells were thawed and membrane fragments were generated by homogenization using a polytron homogenizer (30 seconds). The membrane fragments were then centrifuged at 3000 g for 20 minutes and resuspended in buffer C (Buffer C: 75 mM Tris, 25 mM MgCl2, 250 mM Saccharose pH 7.4). Aliquots of membrane fragments were stored at −20° C.
Binding assay was performed in a final assay volume of 250 μl. First, 25 μl of test compound, previously diluted in Binding-Buffer (Binding-Buffer: 50 mM Tris-Base, 100 mM NaCl, 1 mM EDTA, 0.1% BSA (protease free), 0.01% NaN3, 10 mM MnCl2, pH 7.0) was placed into each well. After addition of 75 μl Binding-Buffer, 50 μl of the radioligand ^3H-PGD2 (at 2.5 nM (220.000 dpm/well) from ANAWA ART0662) was added to each well. Binding assay was started by addition of 100 μl CRTH2 membrane fragments, reaching a final concentration of 20 μg/well. For non-specific binding, PGD2 was added to the reaction mixture to […] final concentration. This assay mix was incubated for 90 minutes at room temperature and then filtered through a GF/C filter 96-well plate which was pre-soaked for 3 hours in 0.5% polyethyleneimine (PEI). The filter-wells were washed three times with ice cold Binding-Buffer. Then, 40 μl of Microscint-40 (Packard) was added to each well and the retained radioactivity quantified in a Topcount (Packard).

hCRTH2 receptor, sequence (Q9Y5Y4 whole entry, the tested form may be a part): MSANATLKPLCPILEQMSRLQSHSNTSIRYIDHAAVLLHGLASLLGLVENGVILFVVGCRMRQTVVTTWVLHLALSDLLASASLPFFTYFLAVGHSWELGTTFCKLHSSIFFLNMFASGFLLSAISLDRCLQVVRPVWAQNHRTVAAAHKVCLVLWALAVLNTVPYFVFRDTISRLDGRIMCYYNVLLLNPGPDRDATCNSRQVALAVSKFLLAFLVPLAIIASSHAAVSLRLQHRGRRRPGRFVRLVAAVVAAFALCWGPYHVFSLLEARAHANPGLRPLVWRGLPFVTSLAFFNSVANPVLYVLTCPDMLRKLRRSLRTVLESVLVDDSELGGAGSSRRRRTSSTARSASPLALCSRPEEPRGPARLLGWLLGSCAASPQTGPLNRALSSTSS

Usually IC50 stands for the concentration that gives 50% inhibition. A low value points to greater potency. `CS(=O)(=O)c1ccc(CC(=O)O)cc1-c1ccc(F)c2c1CN(C(=O)OCc1ccccc1)CC2` [Example 20, 8-(5-Carboxymethyl-2-methanesulfonyl-phenyl)-5-fluoro-3,4-dihydro-1H-isoquinoline-2-carboxylic acid benzyl ester] showed an IC50 of 16.3 nM. Compound `O=C(O)Cc1cc(-c2ccc(F)c3c2CN(C(=O)OCc2ccccc2)CC3)ccc1F` [Example 12, 8-(3-Carboxymethyl-4-fluoro-phenyl)-5-fluoro-3,4-dihydro-1H-isoquinoline-2-carboxylic acid benzyl ester] came in with an IC50 of 21.8 nM. In the case of `COc1ccc(CC(=O)O)cc1-c1ccc(OC)c2c1CN(C(=O)OCc1ccccc1)CC2` [Example 156, 8-(5-Carboxymethyl-2-methoxy-phenyl)-5-methoxy-3,4-dihydro-1H-isoquinoline-2-carboxylic acid benzyl ester], the IC50 worked out at 251 nM. For the compound `COc1ccc(CC(=O)O)cc1-c1ccc(F)c2c1CN(C(=O)CC(C)(C)C)CC2` [Example 129, {3-[2-(3,3-Dimethyl-butyryl)-5-fluoro-1,2,3,4-tetrahydro-isoquinolin-8-yl]-4-methoxy-phenyl}-acetic acid], the IC50 worked out at 913 nM. This IC50 lies about 3.6-fold higher than the previous one. The compound `CCOc1cc(CC(=O)O)ccc1-c1ccc(F)c2c1CN(C(=O)CC(C)c1cccc(C)n1)CC2` (racemic) [Example 320] came in with an IC50 of 11.7 nM. Regarding `CCOc1ccc(CC(=O)O)cc1-c1ccc(F)c2c1CN(C(=O)NCc1cccc(F)c1)CC2` [Example 433, {4-Ethoxy-3-[5-fluoro-2-(3-fluoro-benzylcarbamoyl)-1,2,3,4-tetrahydro-isoquinolin-8-yl]-phenyl}-acetic acid], the IC50 was 59.3 nM. In turn, `O=C(O)Cc1cc2c(c(-c3ccc(F)c4c3CN(C(=O)OCc3ccccc3)CC4)c1)OCO2` [Example 167, 8-(6-Carboxymethyl-benzo[1,3]dioxol-4-yl)-5-fluoro-3,4-dihydro-1H-isoquinoline-2-carboxylic acid benzyl ester] yielded an IC50 of 15.4 nM.

Turning to `CCOc1ccc(CC(=O)O)cc1-c1ccc(F)c2c1CN(C(=O)NCc1ccccc1Cl)CC2` [Example 436, {3-[2-(2-Chloro-benzylcarbamoyl)-5-fluoro-1,2,3,4-tetrahydro-isoquinolin-8-yl]-4-ethoxy-phenyl}-acetic acid], the IC50 is 5.4 nM.

As for `COc1ccc(CC(=O)O)cc1-c1ccc(F)c2c1CN(C(=O)C1COc3ccccc3C1)CC2` (racemic) [Example 113, (±)-{3-[2-(Chroman-3-carbonyl)-5-fluoro-1,2,3,4-tetrahydro-isoquinolin-8-yl]-4-methoxy-phenyl}-acetic acid], the IC50 was 18.6 nM. This IC50 is about 3.4-fold higher than that of the compound before. Take `COc1ccc(CC(=O)O)cc1-c1ccc(F)c2c1CN(C(=O)CCn1ncc3cc(F)ccc31)CC2` [Example 126, (3-{5-Fluoro-2-[3-(5-fluoro-indazol-1-yl)-propionyl]-1,2,3,4-tetrahydro-isoquinolin-8-yl}-4-methoxy-phenyl)-acetic acid]: the IC50 is 9.54 nM. Compared with the last compound, the IC50 is about 1.9-fold lower. With `COc1ccc(CC(=O)O)cc1-c1ccc(F)c2c1CN(C(=O)CC1CCOc3ccc(F)cc31)CC2` (racemic) [Example 244], the IC50 worked out at 158 nM. Compared with the last compound, the IC50 is about 17-fold higher. Compound `CC(C)Oc1cc(CC(=O)O)ccc1-c1ccc(F)c2c1CN(C(=O)CC(C)c1ccccn1)CC2` (racemic) [Example 346] registered an IC50 of 3.7 nM. With `COc1ccc(CC(=O)O)cc1-c1ccc(F)c2c1CN(C(=O)CC1CCOc3c(F)cccc31)CC2` (racemic) [Example 246], the IC50 came to 22.3 nM. `COc1ccc(CC(=O)O)cc1-c1ccc(Cl)c2c1CN(C(=O)CCN1CCCc3ccccc31)CC2` [Example 77, {3-[5-Chloro-2-(3-3,4-dihydro-2H-quinolin-1-yl-propionyl)-1,2,3,4-tetrahydro-isoquinolin-8-yl]-4-methoxy-phenyl}-acetic acid] returned an IC50 of 24 nM. Take `COc1ccc(CC(=O)O)cc1-c1ccc(F)c2c1CN(C(=O)[C@H]1C[C@@H]1c1ccccc1)CC2` [Example 81, {3-[5-Fluoro-2-((1S,2S)-2-phenyl-cyclopropanecarbonyl)-1,2,3,4-tetrahydro-isoquinolin-8-yl]-4-methoxy-phenyl}-acetic acid]: the IC50 was 33.1 nM. The IC50 values of the last two compounds are within 1.5-fold of each other. For `COc1ccc(CC(=O)O)cc1-c1ccc(F)c2c1CN(C(=O)NCc1ccccc1)CC2` [Example 136, [3-(2-Benzylcarbamoyl-5-fluoro-1,2,3,4-tetrahydro-isoquinolin-8-yl)-4-methoxy-phenyl]-acetic acid] the value was 30.6 nM; for `COc1ccc(CC(=O)O)cc1-c1ccc(Cl)c2c1CN(C(=O)COCc1ccccc1Cl)CC2` [Example 73, (3-{5-Chloro-2-[2-(2-chloro-benzyloxy)-acetyl]-1,2,3,4-tetrahydro-isoquinolin-8-yl}-4-methoxy-phenyl)-acetic acid], 30.2 nM. `COc1ccc(CC(=O)O)cc1-c1ccc(C(F)(F)F)c2c1CN(C(=O)C1CC1)CC2` [Example 82, [3-(2-Cyclopropanecarbonyl-5-trifluoromethyl-1,2,3,4-tetrahydro-isoquinolin-8-yl)-4-methoxy-phenyl]-acetic acid]: the IC50 is 250 nM. `O=C(O)Cc1ccc(F)c(-c2cccc3c2CN(C(=O)OCc2ccccc2)CC3)c1` [Example 23, 8-(5-Carboxymethyl-2-fluoro-phenyl)-3,4-dihydro-1H-isoquinoline-2-carboxylic acid benzyl ester] gave an IC50 of 192 nM. This IC50 and that of the compound before are within 1.5-fold of each other.

Turning to `O=C(O)Cc1ccc(-c2ccc(F)c3c2CN(C(=O)OCc2ccccc2)CC3)cc1` [Example 41, 8-(4-Carboxymethyl-phenyl)-5-fluoro-3,4-dihydro-1H-isoquinoline-2-carboxylic acid benzyl ester], the IC50 came to 44.9 nM. This IC50 is about 4.3-fold lower than that of the compound before. For `CCOc1cc(CC(=O)O)ccc1-c1ccc(F)c2c1CN(C(=O)CCc1ccc(F)cc1)CC2` [Example 315, (3-Ethoxy-4-{5-fluoro-2-[3-(4-fluoro-phenyl)-propionyl]-1,2,3,4-tetrahydro-isoquinolin-8-yl}-phenyl)-acetic acid] the value was 5.1 nM; for `COc1ccc(CC(=O)O)cc1-c1ccc(F)c2c1CN(C(=O)CC1c3ccccc3CCN1C)CC2` (racemic) [Example 259], 587 nM; for `CCOc1ccc(CC(=O)O)cc1-c1ccc(F)c2c1CN(C(=O)C1CCc3cccc(OC)c3C1)CC2` (racemic) [Example 333], 22.7 nM.

`COc1ccc(CC(=O)O)cc1-c1ccc(F)c2c1CN(C(=O)[C@@H]1C[C@H]1c1ccccc1F)CC2` [Example 66, (3-{5-Fluoro-2-[(1R,2R)-2-(2-fluoro-phenyl)-cyclopropanecarbonyl]-1,2,3,4-tetrahydro-isoquinolin-8-yl}-4-methoxy-phenyl)-acetic acid] came in with an IC50 of 1.77 nM. Take `COc1ccc(CC(=O)O)cc1-c1ccc(Cl)c2c1CN(C(=O)[C@@H]1C[C@H]1c1ccc(Cl)cc1)CC2` [Example 68, (3-{5-Chloro-2-[(1R,2R)-2-(4-chloro-phenyl)-cyclopropanecarbonyl]-1,2,3,4-tetrahydro-isoquinolin-8-yl}-4-methoxy-phenyl)-acetic acid]: the IC50 stood at 3.75 nM.

`CCOc1cc(CC(=O)O)ccc1-c1ccc(F)c2c1CN(C(=O)OCc1ncc(C)cc1F)CC2` [Example 387, 8-(4-Carboxymethyl-2-ethoxy-phenyl)-5-fluoro-3,4-dihydro-1H-isoquinoline-2-carboxylic acid 3-fluoro-5-methyl-pyridin-2-ylmethyl ester] came in with an IC50 of 8 nM.
